Assays:
myc = experiment: Western blot of myc after c-myc siRNA delivery in 4188 cells; type: cell-based
Method: Typical incubations were carried out by incubating 4188 cells with the NT conjugates for periods ranging from 12-14 h at 37° C. and 5% CO2 atmosphere. In addition to our positive incubation with our disulfide containing conjugate, SWNT-SS-siRNAmyc (typical [NT} ≈20 nM and [siRNA] ≈500 nM in incubation), control incubations were also carried out with DOX at a concentration 2 ng/mL, commercially available transfecting agent lipofectamine-myc complex and finally with a mixture of SWNT suspension and myc siRNA solution.
The proliferation of the cells was also examined by the use of a colorimetric MTS-based assay. […] In order to verify that the decrease in cell viability and proliferation was in fact a result of the knockdown of myc in the lymphoma cells, western blots were performed on the respective cellysates. The myc band was absent for the SWNT-SS-siRNAmyc and DOX treated cell.

4188 cells = experiment: Cell density, cell death and proliferation of lymphoma cells after c-myc siRNA delivery; type: cell-based, mice; details: approximately 24 h treatment, light microscopy
Method: These conjugates were used to treat T-cell lymphoma cells, 4188 cells, which were derived from mice overexpressing human myc. Control experiments were also performed where the 4188 cells were exposed to a mixture of SWNT and siRNAmyc (no covalent linkage), to lipofectamine-siRNAmyc complex or to the antibiotic doxicycline (DOX). The 4188 cells used in this experiment had been previously engineered to be tet-regulatable such that the myc gene can be turned off by treatment with DOX.
The 4188 cells are non-adherent cells, typically cultured in RPMI 1640 medium supplemented with fetal bovine serum, penicillin/streptomycin and betamercaptoethanol. The cells were engineered to have tet-regulatable MYC, which can be regulated by the antibiotic doxicycline (DOX). 4188 cells are further described at Jain, M. et al. Sustained loss of a neoplastic phenotype by brief inactivation of MYC. Science 297, 102-104 (2002). […]
The cell proliferation was determined by using the CellTiterA96 assay (Promega). […]
Cell death was monitored in the cells by cell cytometry. […]

**Q.** `C[C@H]1c2cccc(O)c2C(O)=C2C(=O)[C@]3(O)C(O)=C(C(N)=O)C(=O)[C@@H](N(C)C)[C@@H]3[C@@H](O)[C@@H]21` [DOX, doxicycline] was tested. Which “myc band in western blot” value (myc) did it give?
**A.** absent

**Q.** And the cell density (4188 cells)?
**A.** some reduction in the cell density
